Assay [1] addresses T1, full length human wildtype Btk (Homo sapiens, UniProt Q06187).
T1 construct: V5 (C); 6xHis (C); made in house; host or cells: Sf9 insect cells (baculovirus, pFastBac)
In words: Biochemical Btk Assay (BTK LC3K). As for the experimental part:
A generalized procedure for a standard biochemical Btk, Kinase Assay that can be used to test Formula I compounds is as follows. A master mix minus Btk enzyme is prepared containing 1× Cell Signaling kinase buffer (25 mM Tris-HCl, pH 7.5, 5 mM beta-glycerophosphate, 2 mM dithiothreitol, 0.1 mM Na3VO4, 10 mM MgCl2), 0.5 μM Promega PTK Biotinylated peptide substrate 2, and 0.01% BSA. A master mix plus Btk enzyme is prepared containing 1× Cell Signaling kinase buffer, 0.5 μM (micromolar) PTK Biotinylated peptide substrate 2, 0.01% BSA, and 100 ng/well (0.06 mU/well) Btk enzyme. Btk enzyme is prepared as follows: full length human wildtype Btk (accession number NM-000061) with a C-terminal V5 and 6×His tag was subcloned into pFastBac® vector (Invitrogen/Life Technologies) for making baculovirus carrying this epitope-tagged Btk. […] Passage 3 virus is used to infect Sf9 cells to overexpress the recombinant Btk protein. The Btk protein is then purified to homogeneity using Ni-NTA column. […] A solution of 200 μM ATP is prepared in water and adjusted to pH 7.4 with 1N NaOH. A quantity of 1.25 μL (microliter) of compounds in 5% DMSO is transferred to a 96-well ½ area Costar polystyrene plate. Compounds are tested singly and with an 11-point dose-responsive curve (starting concentration is 10 μM; 1:2 dilution). A quantity of 18.75 μL of master mix minus enzyme (as a negative control) and master mix plus enzyme is transferred to appropriate wells in 96-well ½ area costar polystyrene plate. 5 μL of 200 μM ATP is added to that mixture in the 96-well ½ area Costar polystyrene plate for final ATP concentration of 40 μM. The reaction is allowed to incubate for 1 hour at room temperature. The reaction is stopped with Perkin Elmer 1× detection buffer containing 30 mM EDTA, 20 nM SA-APC, and 1 nM PT66 Ab. […] IC50 values are subsequently calculated. Alternatively, the Lanthascreen assay can be used to evaluate Btk activity through quantification of its phosphorylated peptide product. The FRET (Fluorescence Resonance Energy Transfer) that occurs between the fluorescein on the peptide product and the terbium on the detection antibody decreases with the addition of inhibitors of Btk that reduce the phosphorylation of the peptide. In a final reaction volume of 25 uL, Btk (h) (0.1 ng/25 ul reaction) is incubated with 50 mM Hepes pH 7.5, 10 mM MgCl2, 2 mM MnCl2, 2 mM DTT, 0.2 mM NaVO4, 0.01% BSA, and 0.4 uM fluorescein poly-GAT. […] After incubation for 60 minutes at room temperature, the reaction is stopped by the addition of a final concentration of 2 nM Tb-PY20 detection antibody in 60 mM EDTA for 30 minutes at room temperature.

Assay [2] relates to CD69 by B lymphocytes in human whole blood activated with goat F(ab')2 anti-human IgM. As to the kind of experiment: CD69 Whole Blood Assay (CD69 Hu Blood FACS). The assay is classed as cell-based. The settings on record: Lymphocyte, CD69 positive of CD20 positive cells. In short, it runs like this: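 Heparinized human whole blood from healthy drug-free non-smokers preincubated 30 min at 37 °C with ten-point 3-fold compound dilutions, then stimulated with goat F(ab′)2 anti-human IgM (50 μg/ml final) for 20 h. CD69 on B cells read by flow cytometry as mean fluorescence intensity.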

What is called pKi is −log10 of the Ki, conventionally taken in molar units. Higher therefore signals a low Ki. Usually pIC50 stands for the IC50 on a negative log10 scale, so that one unit is a factor of ten. A low value points to a high IC50.

pIC50, pKi: −log10 of the molar value.

T1 sequence (Q06187 whole entry): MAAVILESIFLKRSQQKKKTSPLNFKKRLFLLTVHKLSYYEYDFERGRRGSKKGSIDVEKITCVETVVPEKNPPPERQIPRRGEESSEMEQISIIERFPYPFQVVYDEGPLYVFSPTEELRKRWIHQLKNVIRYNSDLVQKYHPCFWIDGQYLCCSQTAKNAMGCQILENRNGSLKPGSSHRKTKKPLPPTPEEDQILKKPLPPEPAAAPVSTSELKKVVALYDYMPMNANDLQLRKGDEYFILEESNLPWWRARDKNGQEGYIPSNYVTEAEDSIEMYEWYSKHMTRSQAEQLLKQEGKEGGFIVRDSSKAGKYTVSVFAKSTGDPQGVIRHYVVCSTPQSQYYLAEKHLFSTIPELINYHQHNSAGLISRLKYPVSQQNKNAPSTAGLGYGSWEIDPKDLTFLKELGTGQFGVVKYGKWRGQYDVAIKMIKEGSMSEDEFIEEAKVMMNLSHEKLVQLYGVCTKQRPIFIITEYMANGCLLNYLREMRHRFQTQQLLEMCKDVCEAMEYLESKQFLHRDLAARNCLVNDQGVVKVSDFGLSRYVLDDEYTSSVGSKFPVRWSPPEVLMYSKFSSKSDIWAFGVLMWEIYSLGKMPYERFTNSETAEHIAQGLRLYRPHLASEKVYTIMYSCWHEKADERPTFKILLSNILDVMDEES

As to `Cn1cc(-c2ccnc(N3CCn4c(cc5c4CC(C)(C)C5)C3=O)c2CO)cc(NC(=O)c2ccc(N3CCCC3)nc2)c1=O` [Compound 113, N-[5-[2-(7,7-dimethyl-4-oxo-1,2,6,8-tetrahydrocyclopenta[3,4]pyrrolo[3,5-b]pyrazin-3-yl)-3-(hydroxymethyl)-4-pyridyl]-1-methyl-2-oxo-3-pyridyl]-6-pyrrolidin-1-yl-pyridine-3-carboxamide], the negative-log Ki (pKi) in assay [1] (Table 1) is 7.11. In assay [2] (Table 1, anti-IgM stimulation), this molecule gave a pIC50 of less than 5.46.
In assay [1] (Table 1), `Cn1cc(-c2ccnc(N3CCn4c(cc5c4CC(C)(C)C5)C3=O)c2CO)cc(NC(=O)c2ccccc2)c1=O` [Compound 114, N-[5-[2-(7,7-dimethyl-4-oxo-1,2,6,8-tetrahydrocyclopenta[3,4]pyrrolo[3,5-b]pyrazin-3-yl)-3-(hydroxymethyl)-4-pyridyl]-1-methyl-2-oxo-3-pyridyl]benzamide] showed a negative-log Ki (pKi) of 6.63. For the same molecule, the negative logarithm of the IC50 (pIC50) in assay [2] (Table 1, anti-IgM stimulation) was less than 5.27.
The matching figures for `Cn1cc(-c2ccnc(N3CCn4c(cc5c4CC(C)(C)C5)C3=O)c2CO)cc(NC(=O)c2cnco2)c1=O` [Compound 115, N-[5-[2-(7,7-dimethyl-4-oxo-1,2,6,8-tetrahydrocyclopenta[3,4]pyrrolo[3,5-b]pyrazin-3-yl)-3-(hydroxymethyl)-4-pyridyl]-1-methyl-2-oxo-3-pyridyl]oxazole-5-carboxamide]: less than 6.30 and less than 5.49.
The matching figures for `Cn1cc(-c2ccnc(N3CCn4c(cc5c4CC(C)(C)C5)C3=O)c2CO)cc(NC(=O)C2CC2(F)F)c1=O` (stereo not drawn) [Compound 116, N-[5-[2-(7,7-dimethyl-4-oxo-1,2,6,8-tetrahydrocyclopenta[3,4]pyrrolo[3,5-b]pyrazin-3-yl)-3-(hydroxymethyl)-4-pyridyl]-1-methyl-2-oxo-3-pyridyl]-2,2-difluoro-cyclopropanecarboxamide]: 7.46 and 6.01.
With `CCC(=O)Nc1cc(-c2ccnc(-n3ncc4cc(C(C)(C)C)cc(F)c4c3=O)c2CO)cn(C)c1=O` [Compound 126, N-[5-[2-(6-tert-butyl-8-fluoro-1-oxo-phthalazin-2-yl)-3-(hydroxymethyl)-4-pyridyl]-1-methyl-2-oxo-3-pyridyl]propanamide], the pKi in assay [1] (Table 1) was 8.15. The molecule also showed a pIC50 in assay [2] (Table 1, anti-IgM stimulation) of 6.28.
On to `CC(=O)Nc1cc(-c2ccnc(-n3ncc4cc(C(C)(C)C)cc(F)c4c3=O)c2CO)cn(C)c1=O` [Compound 127, N-[5-[2-(6-tert-butyl-8-fluoro-1-oxo-phthalazin-2-yl)-3-(hydroxymethyl)-4-pyridyl]-1-methyl-2-oxo-3-pyridyl]acetamide], for which the negative logarithm of the Ki (pKi) in assay [1] (Table 1) is 7.97. For the same molecule, the pIC50 in assay [2] (Table 1, anti-IgM stimulation) is 6.47.
With `Cn1cc(-c2cccc(N3CCn4c(cc5c4CC(C)(C)C5)C3=O)c2CO)cc(NC(=O)C2CC2)c1=O` [Compound 129, N-[5-[3-(7,7-dimethyl-4-oxo-1,2,6,8-tetrahydrocyclopenta[3,4]pyrrolo[3,5-b]pyrazin-3-yl)-2-(hydroxymethyl)phenyl]-1-methyl-2-oxo-3-pyridyl]cyclopropanecarboxamide], the pKi in assay [1] (Table 2) is 8.42. In addition, the pIC50 in assay [2] (Table 2, anti-IgM stimulation) is 7.29.
Turning to `Cn1cc(-c2cc(F)cc(N3CCn4c(cc5c4CC(C)(C)C5)C3=O)c2CO)cc(NC(=O)C2CC2)c1=O` [Compound 130, N-[5-[3-(7,7-dimethyl-4-oxo-1,2,6,8-tetrahydrocyclopenta[3,4]pyrrolo[3,5-b]pyrazin-3-yl)-5-fluoro-2-(hydroxymethyl)phenyl]-1-methyl-2-oxo-3-pyridyl]cyclopropanecarboxamide], in assay [1] (Table 2), the negative logarithm of the Ki (pKi) is 8.89. The molecule further showed a pIC50 in assay [2] (Table 2, anti-IgM stimulation) of 7.46.
In the case of `Cn1cc(-c2ccnc(N3CCc4c(sc5c4CC(C)(C)C5)C3=O)c2CO)cc(NC(=O)C2CC2)c1=O` [Compound 131, N-[5-[2-(7,7-dimethyl-4-oxo-1,2,6,8-tetrahydrocyclopenta[3,4]thieno[1,3-c]pyridin-3-yl)-3-(hydroxymethyl)-4-pyridyl]-1-methyl-2-oxo-3-pyridyl]cyclopropanecarboxamide], the negative logarithm of the Ki (pKi) in assay [1] (Table 2) is 8.15. The negative logarithm of the IC50 (pIC50) in assay [2] (Table 2, anti-IgM stimulation) was 6.62.
In assay [1] (Table 2), `Cn1cc(-c2ccnc(N3CCc4c(cc5n4CC(C)(C)C5)C3=O)c2CO)cc(NC(=O)C2CC2)c1=O` [Compound 137, N-[5-[2-(7,7-dimethyl-4-oxo-1,2,6,8-tetrahydropyrido[3,4-b]pyrrolizin-3-yl)-3-(hydroxymethyl)-4-pyridyl]-1-methyl-2-oxo-3-pyridyl]cyclopropanecarboxamide] showed a negative-log Ki (pKi) of 7.55. For the same molecule, the pIC50 in assay [2] (Table 2, anti-IgM stimulation) was 6.21.
The matching figures for `C[C@@H]1C[C@H]1C(=O)Nc1cc(-c2ccnc(N3CCn4c(cc5c4CC(C)(C)C5)C3=O)c2CO)cn(C)c1=O` [Compound 138, (1R,2R)—N-[5-[2-(7,7-dimethyl-4-oxo-1,2,6,8-tetrahydrocyclopenta[3,4]pyrrolo[3,5-b]pyrazin-3-yl)-3-(hydroxymethyl)-4-pyridyl]-1-methyl-2-oxo-3-pyridyl]-2-methyl-cyclopropanecarboxamide]: 7.36 and 5.59.
The matching figures for `Cn1cc(-c2cccc(N3CCc4c(cc5n4CCCC5)C3=O)c2CO)cc(NC(=O)C2CC2)c1=O` [Compound 139, N-[5-[2-(hydroxymethyl)-3-(1-oxo-3,4,6,7,8,9-hexahydropyrido[3,4-b]indolizin-2-yl)phenyl]-1-methyl-2-oxo-3-pyridyl]cyclopropanecarboxamide]: 8.11 and 6.16.
As for `Cn1cc(-c2cccc(N3CCc4c(cc5n4CC(C)(C)C5)C3=O)c2CO)cc(NC(=O)C2CC2)c1=O` [Compound 142, N-[5-[3-(7,7-dimethyl-4-oxo-1,2,6,8-tetrahydropyrido[3,4-b]pyrrolizin-3-yl)-2-(hydroxymethyl)phenyl]-1-methyl-2-oxo-3-pyridyl]cyclopropanecarboxamide], in assay [1] (Table 2), the negative-log Ki (pKi) was 8.74. In addition, the negative-log IC50 (pIC50) in assay [2] (Table 2, anti-IgM stimulation) is 7.15.
The matching figures for `Cn1cc(-c2ccnc(N3CCc4cc(OC(F)F)cc(F)c4C3=O)c2CO)cc(NC(=O)C2CC2)c1=O` [Compound 144, N-[5-[2-[6-(difluoromethoxy)-8-fluoro-1-oxo-3,4-dihydroisoquinolin-2-yl]-3-(hydroxymethyl)-4-pyridyl]-1-methyl-2-oxo-3-pyridyl]cyclopropanecarboxamide]: 6.63 and less than 5.27.
For the molecule `Cn1cc(-c2ccnc(N3CCc4cc(OC(F)F)cc(F)c4C3=O)c2CO)cc(NC(=O)[C@@H]2C[C@@H]2F)c1=O` [Compound 151, (1S,2S)—N-[5-[2-[6-(difluoromethoxy)-8-fluoro-1-oxo-3,4-dihydroisoquinolin-2-yl]-3-(hydroxymethyl)-4-pyridyl]-1-methyl-2-oxo-3-pyridyl]-2-fluoro-cyclopropanecarboxamide], the pKi in assay [1] (Table 2) is 7.18. Besides, the pIC50 in assay [2] (Table 2, anti-IgM stimulation) was less than 5.28.
On to `COCC(=O)Nc1cc(-c2ccnc(-n3ncc4cc(C(C)(C)C)cc(F)c4c3=O)c2CO)cn(C)c1=O` [Compound 156, N-[5-[2-(6-tert-butyl-8-fluoro-1-oxo-phthalazin-2-yl)-3-(hydroxymethyl)-4-pyridyl]-1-methyl-2-oxo-3-pyridyl]-2-methoxy-acetamide], for which the pKi in assay [1] (Table 2) was 7.68. Further, the negative logarithm of the IC50 (pIC50) in assay [2] (Table 2, anti-IgM stimulation) is less than 5.35.
In turn, `Cn1cc(-c2ccnc(N3CCc4cc(OC(F)(F)F)ccc4C3=O)c2CO)cc(NC(=O)C2CC2)c1=O` [Compound 158, N-[5-[3-(hydroxymethyl)-2-[1-oxo-6-(trifluoromethoxy)-3,4-dihydroisoquinolin-2-yl]-4-pyridyl]-1-methyl-2-oxo-3-pyridyl]cyclopropanecarboxamide] showed a negative logarithm of the Ki (pKi) in assay [1] (Table 2) of 6.58. The molecule further had a negative-log IC50 (pIC50) in assay [2] (Table 2, anti-IgM stimulation) of less than 5.36.
The matching figures for `CCNC(=O)Nc1cc(-c2ccnc(N3CCn4c(cc5c4CC(C)(C)C5)C3=O)c2CO)cn(C)c1=O` [Compound 159, 1-[5-[2-(7,7-dimethyl-4-oxo-1,2,6,8-tetrahydrocyclopenta[3,4]pyrrolo[3,5-b]pyrazin-3-yl)-3-(hydroxymethyl)-4-pyridyl]-1-methyl-2-oxo-3-pyridyl]-3-ethyl-urea]: 8.80 and 6.88.

Values taken from US9326985B2, “Heteroaryl pyridone and aza-pyridone amide compounds” (Genentech, Inc., priority 2013, dated 2016).
